{"source": "patent US10421718B2", "about": "“EBNA1 inhibitors and their method of use” (priority 2013, dated 2019)", "biological_target": "T1, His-EBNA1 (DNA binding domain of EBNA1, amino acids 459-607) (Epstein-Barr virus, UniProt P03211)", "T1 construct": "made in house; host or cells: E. coli", "T1 sequence (P03211 459-607)": "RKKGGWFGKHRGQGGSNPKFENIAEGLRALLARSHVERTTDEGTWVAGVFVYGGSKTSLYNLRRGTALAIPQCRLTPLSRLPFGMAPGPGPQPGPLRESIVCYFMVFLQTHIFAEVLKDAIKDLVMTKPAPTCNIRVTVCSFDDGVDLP", "assay": "Inhibition of 5′-biotin-oPL4624 binding to His-EBNA1 using Alpha Screen technology", "conditions": "Alpha Screen Activity (IC50, inhibition of 5′-biotin-oPL4624 binding to His-EBNA1), 15 nM His-EBNA1, 0.2 nM bt-oPL4624, 2 hr room temperature", "summary_of_the_method": "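His-tagged EBNA1 DNA-binding domain (aa 459-607, E. coli-expressed) at 15 nM with 0.2 nM biotinylated self-complementary oligo, streptavidin donor and nickel acceptor beads, in 25 mM Tris pH 7.2, 160 mM NaCl, 1 mM MgCl2. Compound 3.2 nM-100 μM final; AlphaScreen read after 2 h at room temperature, one-site dose-response fit.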", "note": "Structures can show the parent of a compound that is named as a salt.", "data": [{"smiles": "CS(=O)(=O)Nc1ccc(C#Cc2cccc(C(=O)O)c2-c2ccc3cc[nH]c3c2)cc1", "note": "[Entry 215, 2-(1H-indol-6-yl)-3-(4-methanesulfonylamino-phenylethynyl)-benzoic acid]", "values": [{"measurement": "IC50", "value": "1 to 10", "unit": "µM"}]}, {"smiles": "O=C(O)c1cccc(C#Cc2ccc(NS(=O)(=O)c3cccs3)cc2)c1-c1ccc2cc[nH]c2c1", "note": "[Entry 216, 2-(1H-indol-6-yl)-3-[4-(thiophene-2-sulfonylamino)-phenylethynyl]-benzoic acid]", "values": [{"measurement": "IC50", "value": "1 to 10", "unit": "µM"}]}, {"smiles": "COC(=O)c1c[nH]c2cc(-c3c(C#Cc4cscn4)cccc3C(=O)O)ccc12", "note": "[Entry 217, 2-(3-(Methoxycarbonyl)-1H-indol-6-yl)-3-(thiazol-4-ylethynyl)benzoic acid]", "values": [{"measurement": "IC50", "value": "1 to 10", "unit": "µM"}]}, {"smiles": "O=C(O)c1cccc(C#Cc2cscn2)c1-c1ccc2cc[nH]c2c1", "note": "[Entry 218, 2-(1H-indol-6-yl)-3-(thiazol-4-ylethynyl)benzoic acid]", "values": [{"measurement": "IC50", "value": "10 to 100", "unit": "µM"}]}, {"smiles": "Cn1cc(-c2c(C#Cc3cscn3)cccc2C(=O)O)cn1", "note": "[Entry 219, 2-(1-methyl-1H-pyrazol-4-yl)-3-(thiazol-4-ylethynyl)benzoic acid]", "values": [{"measurement": "IC50", "value": "10 to 100", "unit": "µM"}]}, {"smiles": "Cn1cc(-c2c(C#Cc3cccc(O)c3)cccc2C(=O)O)cn1", "note": "[Entry 220, 3-((3-hydroxyphenyl)ethynyl)-2-(1-methyl-1H-pyrazol-4-yl)benzoic acid]", "values": [{"measurement": "IC50", "value": "1 to 10", "unit": "µM"}]}, {"smiles": "O=C(O)c1cccc(C#Cc2cccc(O)c2)c1-c1ccc2c(Cl)c[nH]c2c1", "note": "[Entry 221, 2-(3-chloro-1H-indol-6-yl)-3-((3-hydroxyphenyl)ethynyl)benzoic acid]", "values": [{"measurement": "IC50", "value": "1 to 10", "unit": "µM"}]}, {"smiles": "O=C(O)c1cccc(C#Cc2cccc(O)c2)c1-c1ccc2cn[nH]c2c1", "note": "[Entry 222, 3-((3-hydroxyphenyl)ethynyl)-2-(1H-indazol-6-yl)benzoic acid]", "values": [{"measurement": "IC50", "value": "1 to 10", "unit": "µM"}]}, {"smiles": "CC(=O)NCCc1c[nH]c2cc(-c3c(C#Cc4cccc(O)c4)cccc3C(=O)O)ccc12", "note": "[Entry 223, 2-(3-(2-acetamidoethyl)-1H-indol-6-yl)-3-((3-hydroxyphenyl)ethynyl)benzoic acid]", "values": [{"measurement": "IC50", "value": "1 to 10", "unit": "µM"}]}, {"smiles": "CN(C)S(=O)(=O)c1cccc(C#Cc2cccc(C(=O)O)c2F)c1", "note": "[Entry 224]", "values": [{"measurement": "IC50", "value": "10 to 100", "unit": "µM"}]}, {"smiles": "O=C(O)c1cccc(C#Cc2ccc(OC3CCOCC3)cc2)c1-c1ccc2cc[nH]c2c1", "note": "[Entry 225, 2-(1H-indol-6-yl)-3-((4-(tetrahydro-2H-pyran-4-yloxy)phenyl)ethynyl)benzoic acid]", "values": [{"measurement": "IC50", "value": "< 1", "unit": "µM"}]}, {"smiles": "O=C(O)c1cccc(C#Cc2ccc(N3CCOCC3)cc2)c1-c1ccc2cc[nH]c2c1", "note": "[Entry 226, 2-(1H-indol-6-yl)-3-((4-morpholinophenyl)ethynyl)benzoic acid]", "values": [{"measurement": "IC50", "value": "10 to 100", "unit": "µM"}]}, {"smiles": "NC(=O)c1cccc(C#Cc2cccc(C(=O)O)c2-c2ccc3cc[nH]c3c2)c1", "note": "[Entry 227, 3-((3-carbamoylphenyl)ethynyl)-2-(1H-indol-6-yl)benzoic acid]", "values": [{"measurement": "IC50", "value": "10 to 100", "unit": "µM"}]}, {"smiles": "O=C(O)c1cccc(C#Cc2ccc(F)cc2)c1-c1ccc2cc[nH]c2c1", "note": "[Entry 228, 3-((4-Fluorophenyl)ethynyl)-2-(1H-indol-6-yl)benzoic acid]", "values": [{"measurement": "IC50", "value": "1 to 10", "unit": "µM"}]}, {"smiles": "O=C(O)c1cccc(C#Cc2ccc(F)cc2F)c1-c1ccc2cc[nH]c2c1", "note": "[Entry 229, 3-((2,4-Difluorophenyl)ethynyl)-2-(1H-indol-6-yl)benzoic acid]", "values": [{"measurement": "IC50", "value": "1 to 10", "unit": "µM"}]}, {"smiles": "CC(=O)Nc1cccc(C#Cc2cccc(C(=O)O)c2-c2ccc3cc[nH]c3c2)c1", "note": "[Entry 230, 3-((3-Acetamidophenyl)ethynyl)-2-(1H-indol-6-yl)benzoic acid]", "values": [{"measurement": "IC50", "value": "< 1", "unit": "µM"}]}, {"smiles": "O=C(Nc1cccc(C#Cc2cccc(C(=O)O)c2-c2ccc3cc[nH]c3c2)c1)c1cccnc1", "note": "[Entry 231, 2-(1H-indol-6-yl)-3-((3-(nicotinamido)phenyl)ethynyl)benzoic acid]", "values": [{"measurement": "IC50", "value": "1 to 10", "unit": "µM"}]}, {"smiles": "O=C(O)c1cccc(C#Cc2cccc(NS(=O)(=O)c3ccc(F)c(Cl)c3)c2)c1-c1ccc2cc[nH]c2c1", "note": "[Entry 232, 3-((3-(3-chloro-4-fluorophenylsulfonamido)phenyl)ethynyl)-2-(1H-indol-6-yl)benzoic acid]", "values": [{"measurement": "IC50", "value": "< 1", "unit": "µM"}]}, {"smiles": "Nc1cccc(C#Cc2cccc(C(=O)O)c2-c2ccc3cc[nH]c3c2)c1", "note": "[Entry 233, 3-((3-aminophenyl)ethynyl)-2-(1H-indol-6-yl)benzoic acid]", "values": [{"measurement": "IC50", "value": "< 1", "unit": "µM"}]}, {"smiles": "CS(=O)(=O)Nc1cccc(C#Cc2cccc(C(=O)O)c2-c2ccc3cc[nH]c3c2)c1", "note": "[Entry 234, 2-(1H-indol-6-yl)-3-((3-(methylsulfonamido)phenyl)ethynyl)benzoic acid]", "values": [{"measurement": "IC50", "value": "1 to 10", "unit": "µM"}]}, {"smiles": "O=C(O)c1cccc(C#Cc2cccc(NS(=O)(=O)c3cccs3)c2)c1-c1ccc2cc[nH]c2c1", "note": "[Entry 235, 2-(1H-indol-6-yl)-3-((3-(thiophene-2-sulfonamido)phenyl)ethynyl)benzoic acid]", "values": [{"measurement": "IC50", "value": "< 1", "unit": "µM"}]}, {"smiles": "CC(=O)Nc1cc(F)cc(C#Cc2cccc(C(=O)O)c2-c2ccc3cc[nH]c3c2)c1", "note": "[Entry 236, 3-((3-acetamido-5-fluorophenyl)ethynyl)-2-(1H-indol-6-yl)benzoic acid]", "values": [{"measurement": "IC50", "value": "< 1", "unit": "µM"}]}, {"smiles": "O=C(O)c1cccc(C#Cc2ccccc2)c1-c1ccc2c(c1)NCC2", "note": "[Entry 237, 2-(indolin-6-yl)-3-(phenylethynyl)benzoic acid]", "values": [{"measurement": "IC50", "value": "10 to 100", "unit": "µM"}]}, {"smiles": "O=C(O)c1cccc(C#Cc2cccc(O)c2)c1-c1ccc2c(c1)NCC2", "note": "[Entry 238, 3-((3-hydroxyphenyl)ethynyl)-2-(indolin-6-yl)benzoic acid]", "values": [{"measurement": "IC50", "value": "1 to 10", "unit": "µM"}]}, {"smiles": "Nc1cccc(C#Cc2cccc(C(=O)O)c2-c2ccc3cc[nH]c3c2)n1", "note": "[Entry 239, 3-((6-aminopyridin-2-yl)ethynyl)-2-(1H-indol-6-yl)benzoic acid]", "values": [{"measurement": "IC50", "value": "1 to 10", "unit": "µM"}]}, {"smiles": "Nc1cc(C#Cc2cccc(C(=O)O)c2-c2ccc3cc[nH]c3c2)ccn1", "note": "[Entry 240, 3-((2-aminopyridin-4-yl)ethynyl)-2-(1H-indol-6-yl)benzoic acid]", "values": [{"measurement": "IC50", "value": "1 to 10", "unit": "µM"}]}, {"smiles": "COc1cncc(-c2c(C#Cc3cccc(O)c3)cccc2C(=O)O)c1", "note": "[Entry 241, 3-((3-hydroxyphenyl)ethynyl)-2-(5-methoxypyridin-3-yl)benzoic acid]", "values": [{"measurement": "IC50", "value": "10 to 100", "unit": "µM"}]}, {"smiles": "O=C(O)c1cccc(C#Cc2cccc(O)c2)c1-c1ccc2c(c1)OCO2", "note": "[Entry 242, 2-(benzo[d][1,3]dioxol-5-yl)-3-((3-hydroxyphenyl)ethynyl)benzoic acid]", "values": [{"measurement": "IC50", "value": "10 to 100", "unit": "µM"}]}, {"smiles": "O=C(O)c1cccc(C#Cc2cccc(O)c2)c1-c1cncnc1", "note": "[Entry 243, 3-((3-hydroxyphenyl)ethynyl)-2-(pyrimidin-5-yl)benzoic acid]", "values": [{"measurement": "IC50", "value": "10 to 100", "unit": "µM"}]}, {"smiles": "COc1cc(-c2c(C#Cc3cccc(O)c3)cccc2C(=O)O)ccc1N", "note": "[Entry 244, 4′-Amino-6-((3-hydroxyphenyl)ethynyl)-5′-methoxybiphenyl-2-carboxylic acid]", "values": [{"measurement": "IC50", "value": "10 to 100", "unit": "µM"}]}, {"smiles": "O=C(O)c1cccc(C#CCCO)c1-c1ccc2cc[nH]c2c1", "note": "[Entry 245, 3-(4-hydroxybut-1-ynyl)-2-(1H-indol-6-yl)benzoic acid]", "values": [{"measurement": "IC50", "value": "< 1", "unit": "µM"}]}, {"smiles": "CC(C)(N)C#Cc1cccc(C(=O)O)c1-c1ccc2cc[nH]c2c1", "note": "[Entry 246, 3-(3-amino-3-methylbut-1-ynyl)-2-(1H-indol-6-yl)benzoic acid]", "values": [{"measurement": "IC50", "value": "1 to 10", "unit": "µM"}]}, {"smiles": "O=C(O)c1cccc(C#CC(O)c2ccccc2)c1-c1ccc2cc[nH]c2c1", "note": "(centres unmarked) [Entry 247, 3-(3-hydroxy-3-phenylprop-1-ynyl)-2-(1H-indol-6-yl)benzoic acid]", "values": [{"measurement": "IC50", "value": "< 1", "unit": "µM"}]}, {"smiles": "CC(C)(O)C#Cc1cccc(C(=O)O)c1-c1ccc2cc[nH]c2c1", "note": "[Entry 248, 3-(3-hydroxy-3-methylbut-1-ynyl)-2-(1H-indol-6-yl)benzoic acid]", "values": [{"measurement": "IC50", "value": "< 1", "unit": "µM"}]}, {"smiles": "O=C(O)c1cccc(C#Cc2cccc(CO)c2)c1-c1ccc2cc[nH]c2c1", "note": "[Entry 249, 3-((3-(hydroxymethyl)phenyl)ethynyl)-2-(1H-indol-6-yl)benzoic acid]", "values": [{"measurement": "IC50", "value": "1 to 10", "unit": "µM"}]}, {"smiles": "O=C(O)c1cc2ccc(-c3c(C#Cc4ccccc4)cccc3C(=O)O)cc2[nH]1", "note": "[Entry 250, 6-(2-carboxy-6-(phenylethynyl)phenyl)-1H-indole-2-carboxylic acid]", "values": [{"measurement": "IC50", "value": "1 to 10", "unit": "µM"}]}, {"smiles": "CCOC(=O)c1cc2ccc(-c3c(C#Cc4ccccc4)cccc3C(=O)O)cc2[nH]1", "note": "[Entry 251, 2-(2-(ethoxycarbonyl)-1H-indol-6-yl)-3-(phenylethynyl)benzoic acid]", "values": [{"measurement": "IC50", "value": "1 to 10", "unit": "µM"}]}, {"smiles": "COc1cc(C#Cc2cccc(C(=O)O)c2-c2ccc3cc[nH]c3c2)cc(C(N)=O)c1", "note": "[Entry 252, 3-((3-carbamoyl-5-methoxyphenyl)ethynyl)-2-(1H-indol-6-yl)benzoic acid]", "values": [{"measurement": "IC50", "value": "1 to 10", "unit": "µM"}]}, {"smiles": "O=C(O)c1cccc(C#Cc2ccccc2)c1-c1ccc2[nH]ccc2c1", "note": "[Entry 253, 2-(1H-indol-5-yl)-3-(phenylethynyl)benzoic acid]", "values": [{"measurement": "IC50", "value": "1 to 10", "unit": "µM"}]}, {"smiles": "O=C(O)c1cc2cc(-c3c(C#Cc4cccc(O)c4)cccc3C(=O)O)ccc2[nH]1", "note": "[Entry 254, 5-(2-carboxy-6-((3-hydroxyphenyl)ethynyl)phenyl)-1H-indole-2-carboxylic acid]", "values": [{"measurement": "IC50", "value": "10 to 100", "unit": "µM"}]}, {"smiles": "COc1ccc(C#Cc2cccc(C(=O)O)c2-c2ccc3[nH]c(C(=O)O)cc3c2)cc1", "note": "[Entry 255, 5-(2-carboxy-6-((4-methoxyphenyl)ethynyl)phenyl)-1H-indole-2-carboxylic acid]", "values": [{"measurement": "IC50", "value": "10 to 100", "unit": "µM"}]}, {"smiles": "O=C(O)c1cccc(C#Cc2ccc(F)c(OC3CCOCC3)c2)c1-c1ccc2cc[nH]c2c1", "note": "[Entry 256, 3-((4-fluoro-3-(tetrahydro-2H-pyran-4-yloxy)phenyl)ethynyl)-2-(1H-indol-6-yl)benzoic acid]", "values": [{"measurement": "IC50", "value": "1 to 10", "unit": "µM"}]}, {"smiles": "CC(=O)Nc1cccc(-c2c(C#Cc3ccccc3)cccc2C(=O)O)c1", "note": "[Entry 257, 5′-acetamido-6-(phenylethynyl)biphenyl-2-carboxylic acid]", "values": [{"measurement": "IC50", "value": "10 to 100", "unit": "µM"}]}, {"smiles": "Nc1ccc2c(c1)ncn2CC#Cc1cccc(C(=O)O)c1-c1ccccc1", "note": "[Entry 258, 3-[3-(5-amino-1H-1,3-benzodiazol-1-yl)prop-1-yn-1-yl]-2-phenylbenzoic acid trifluoroacetate salt]", "values": [{"measurement": "IC50", "value": "1 to 10", "unit": "µM"}]}]}
